Laboratory results from patent US9193731B2, “Antimicrobial compounds and methods of making and using the same” (Melinta Therapeutics, Inc., priority 2009, dated 2015).

Test system: Escherichia coli strain ATCC25922
Experiment: standard microdilution assay to determine minimum inhibitory concentrations (MICs)
Type: cell-based
Details: for E. coli ATCC25922 MIC: Escherichia coli strain ATCC25922, microdilution; for MIC: Escherichia coli, ATCC25922, Escherichia coli strain ATCC25922, microdilution, read-out: E. coli ATCC25922 MIC
Outline: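 Broth microdilution MIC against E. coli ATCC25922, following CLSI protocols, typically in a 100 microliter final volume. Results reported as +/− relative to a 16 micrograms/ml cutoff.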

Row | Structure (SMILES) | E. coli ATCC25922 MIC | MIC [µg/mL]
1 | N=C(N)NCCCNCc1ccc(-n2cc3cc(-c4ccc(S(=O)(=O)N(CCCc5cc(-c6ccccc6)n[nH]5)C5CCNCC5)cc4)[nH]c3nc2=O)cc1 [Compound 1175] | + (a “+” indicates that the compound has an MIC value of 16 micrograms/ml or less) | –
2 | N=C(N)NCCCNCc1ccc(-n2cc3cc(-c4cccc(S(=O)(=O)N(CCn5cccn5)C5CCNCC5)c4)[nH]c3nc2=O)cc1 [Compound 1176] | + (a “+” indicates that the compound has an MIC value of 16 micrograms/ml or less) | –
3 | N=C(N)N[C@@H]1CCCN(Cc2ccc(-n3cc4cc(-c5ccc(S(=O)(=O)N(Cc6ccncc6)C6CCNCC6)cc5)[nH]c4nc3=O)cc2)C1 [Compound 1177] | − (a “−” indicates that the compound has an MIC value greater than 16 micrograms/ml) | –
4 | N=C(N)NC1CCN(Cc2ccc(-n3cc4cc(-c5ccc(S(=O)(=O)N(Cc6ccncc6)C6CCNCC6)cc5)[nH]c4nc3=O)cc2)C1 (stereo not drawn) [Compound 1178] | + (a “+” indicates that the compound has an MIC value of 16 micrograms/ml or less) | –
5 | NCCCOc1cccc(-c2cc3cn(-c4ccc(CNCCCN=C(N)N)cc4)c(=O)nc3[nH]2)c1 [Compound 1179] | + (a “+” indicates that the compound has an MIC value of 16 micrograms/ml or less) | –
6 | N=C(N)NCCCNCc1ccc(-n2cc3cc(-c4ccc(S(=O)(=O)C5CCNCC5)cc4)[nH]c3nc2=O)cc1 [Compound 1180] | – | < 16
7 | CN(C)CCCOc1cccc(-c2cc3cn(-c4ccc(CNCCCNC(=N)N)cc4)c(=O)nc3[nH]2)c1 [Compound 1181] | – | < 16
8 | NCc1ccc(-n2cc3cc(-c4cccc(S(=O)(=O)N(CCc5ccc(O)cc5)C5CCNCC5)c4)[nH]c3nc2=O)cc1 [Compound 1182] | – | > 16
9 | NCc1ccc(-n2cc3cc(-c4cccc(S(=O)(=O)N(CCN5CCCC5)C5CCNCC5)c4)[nH]c3nc2=O)cc1 [Compound 1183] | – | > 16
10 | NCc1ccc(-n2cc3cc(-c4cccc(S(=O)(=O)N(CCc5cccc([N+](=O)[O-])c5)C5CCNCC5)c4)[nH]c3nc2=O)cc1 [Compound 1184] | – | > 16
11 | NC(N)=NCCCNCc1ccc(-n2cc3cc(-c4cccc(S(=O)(=O)N(CCc5cccc([N+](=O)[O-])c5)C5CCNCC5)c4)[nH]c3nc2=O)cc1 [Compound 1185] | + (a “+” indicates that the compound has an MIC value of 16 micrograms/ml or less) | –
12 | NC(N)=NCCCNCc1ccc(-n2cc3cc(-c4cccc(S(=O)(=O)N(CCN5CCCC5)C5CCNCC5)c4)[nH]c3nc2=O)cc1 [Compound 1186] | + (a “+” indicates that the compound has an MIC value of 16 micrograms/ml or less) | –
13 | NCc1ccc(-n2cc3cc(-c4cccc(S(=O)(=O)N(CCn5cccc5)C5CCNCC5)c4)[nH]c3nc2=O)cc1 [Compound 1187] | – | > 16
14 | O=c1nc2[nH]c(-c3ccc(S(=O)(=O)NC4CCNCC4)cc3)cc2cn1-c1cccc(OCc2c[nH]cn2)c1 [Compound 1188] | – | > 16
15 | N=C(N)NCCCNCc1ccc(-n2cc3cc(CCS(=O)(=O)CCN)[nH]c3nc2=O)cc1 [Compound 1189] | – | < 16
16 | NC(N)=NCCC(=O)NCc1ccc(-n2cc3cc(-c4ccc(S(=O)(=O)N(CCCc5cccnc5)C5CCNCC5)cc4)[nH]c3nc2=O)cc1 [Compound 1190] | − (a “−” indicates that the compound has an MIC value greater than 16 micrograms/ml) | –
17 | N=C(N)CCCOc1cccc(-c2cc3cn(-c4ccc(CNCCCNC(=N)N)cc4)c(=O)nc3[nH]2)c1 [Compound 1191] | – | > 16
18 | NC(=O)CCCN(C1CCNCC1)S(=O)(=O)c1ccc(-c2cc3cn(-c4ccc(CNC(=O)CCN=C(N)N)cc4)c(=O)nc3[nH]2)cc1 [Compound 1194] | − (a “−” indicates that the compound has an MIC value greater than 16 micrograms/ml) | –
19 | NC(N)=NCCC(=O)NCc1ccc(-n2cc3cc(-c4ccc(S(=O)(=O)N(CCOc5ccc(F)cc5)C5CCNCC5)cc4)[nH]c3nc2=O)cc1 [Compound 1196] | − (a “−” indicates that the compound has an MIC value greater than 16 micrograms/ml) | –
20 | N=C(N)NCCCNCc1ccc(-n2cc3cc(-c4cccc(CCN5CCNCC5)c4)[nH]c3nc2=O)cc1 [Compound 1199] | – | < 16
21 | NCc1ccc(-n2cc3cc(-c4cccc(CCN5CCNCC5)c4)[nH]c3nc2=O)cc1 [Compound 1200] | – | > 16
22 | N=C(N)N[C@@H]1CCN(Cc2ccc(-n3cc4cc(-c5ccc(S(=O)(=O)N(CCCN6CCCCC6)C6CCNCC6)cc5)[nH]c4nc3=O)cc2)C1 [Compound 1201] | + (a “+” indicates that the compound has an MIC value of 16 micrograms/ml or less) | –
23 | CN(C)CCCOc1cccc(-c2cc3cn(-c4ccc(CNC(=O)CCNC(=N)N)cc4)c(=O)nc3[nH]2)c1 [Compound 1202] | – | > 16
24 | N#CCCCOc1cccc(-c2cc3cn(-c4ccc(CNCCCNC(=N)N)cc4)c(=O)nc3[nH]2)c1 [Compound 1203] | – | > 16
25 | CN(CCCOc1cccc(-c2cc3cn(-c4ccc(CNCCCNC(=N)N)cc4)c(=O)nc3[nH]2)c1)C(=O)c1ccccc1 [Compound 1204] | – | > 16
26 | NC(N)=NCCC(=O)NCc1ccc(-n2cc3cc(-c4ccc(S(=O)(=O)N(Cc5ccccc5SC(F)(F)F)C5CCNCC5)cc4)[nH]c3nc2=O)cc1 [Compound 1205] | − (a “−” indicates that the compound has an MIC value greater than 16 micrograms/ml) | –

Row | Structure (SMILES) | E. coli ATCC25922 MIC | MIC [µg/mL]
27 | N=C(N)N[C@@H]1CCN(Cc2ccc(-n3cc4cc(-c5ccc(S(=O)(=O)N(CC6CCOCC6)C6CCNCC6)cc5)[nH]c4nc3=O)cc2)C1 [Compound 1206] | − (a “−” indicates that the compound has an MIC value greater than 16 micrograms/ml) | –
28 | CN1CCN(CCCN(C2CCNCC2)S(=O)(=O)c2ccc(-c3cc4cn(-c5ccc(CN6CC[C@@H](NC(=N)N)C6)cc5)c(=O)nc4[nH]3)cc2)CC1 [Compound 1207] | − (a “−” indicates that the compound has an MIC value greater than 16 micrograms/ml) | –
29 | O=c1nc2[nH]c(-c3ccc(S(=O)(=O)NC4CCNCC4)cc3)cc2cn1-c1ccccc1O [Compound 1208] | – | > 16
30 | CCOCCn1cc(CCNO)c2ccc(-n3cc4cc(CCS(=O)(=O)NC5CCNCC5)[nH]c4nc3=O)cc21 [Compound 1209] | – | > 16
31 | N=C(N)NCCCNCc1ccc(-n2cc3cc(C4CCCNC4)[nH]c3nc2=O)cc1 (stereo not drawn) [Compound 1210] | – | < 16
32 | N=C(N)NCCCNCc1ccc(-n2cc3cc(C4CCCN(C(=N)N)C4)[nH]c3nc2=O)cc1 (stereo not drawn) [Compound 1211] | – | < 16
33 | NC(N)=NCCCNCc1ccc(-n2cc3cc(-c4cccc(S(=O)(=O)N(CCc5ccc(O)cc5)C5CCNCC5)c4)[nH]c3nc2=O)cc1 [Compound 1214] | + (a “+” indicates that the compound has an MIC value of 16 micrograms/ml or less) | –
34 | COc1ccc(CCN(C2CCNCC2)S(=O)(=O)c2cccc(-c3cc4cn(-c5ccc(CN)cc5)c(=O)nc4[nH]3)c2)cc1 [Compound 1215] | – | > 16
35 | N=C(N)CCCOc1cccc(-c2cc3cn(-c4ccc(CNCCCN)cc4)c(=O)nc3[nH]2)c1 [Compound 1216] | – | < 16
36 | N=C(N)CCCOc1cccc(-c2cc3cn(-c4ccc(CNCCCNC(=N)N)cc4)c(=O)nc3[nH]2)c1 [Compound 1217] | + (a “+” indicates that the compound has an MIC value of 16 micrograms/ml or less) | –
37 | CC(C)(C)NCC(=O)Nc1ccc(-c2cc3cn(-c4ccc(CNCCCN=C(N)N)cc4)c(=O)nc3[nH]2)cc1 [Compound 1218] | + (a “+” indicates that the compound has an MIC value of 16 micrograms/ml or less) | –
38 | N=C(N)N[C@@H]1CCN(Cc2ccc(-n3cc4cc(-c5ccc(S(=O)(=O)N(CCCn6cnnc6)C6CCNCC6)cc5)[nH]c4nc3=O)cc2)C1 [Compound 1219] | − (a “−” indicates that the compound has an MIC value greater than 16 micrograms/ml) | –
39 | NC1CCN(Cc2ccc(-n3cc4cc(-c5ccc(S(=O)(=O)N(CCCn6cnnc6)C6CCNCC6)cc5)[nH]c4nc3=O)cc2)C1 (stereo not drawn) [Compound 1220] | − (a “−” indicates that the compound has an MIC value greater than 16 micrograms/ml) | –
40 | CNCCCOc1cccc(-c2cc3cn(-c4ccc(CNCCCNC(=N)N)cc4)c(=O)nc3[nH]2)c1 [Compound 1221] | – | < 16
41 | N=C(N)N[C@@H]1CCN(Cc2ccc(-n3cc4cc(-c5ccc(S(=O)(=O)N(CCCN6CCS(=O)(=O)CC6)C6CCNCC6)cc5)[nH]c4nc3=O)cc2)C1 [Compound 1222] | − (a “−” indicates that the compound has an MIC value greater than 16 micrograms/ml) | –
42 | O=C1CC[C@@H](COc2cccc(-n3cc4cc(-c5ccc(S(=O)(=O)NC6CCNCC6)cc5)[nH]c4nc3=O)c2)N1 [Compound 1223] | – | > 16
43 | CC(=O)NCCN(C1CCNCC1)S(=O)(=O)c1cccc(-c2cc3cn(-c4ccc(CN)cc4)c(=O)nc3[nH]2)c1 [Compound 1224] | – | > 16
44 | NCc1ccc(-n2cc3cc(-c4cccc(S(=O)(=O)N(CCCc5cn[nH]c5)C5CCNCC5)c4)[nH]c3nc2=O)cc1 [Compound 1225] | – | > 16
45 | COc1ccc(CCN(C2CCNCC2)S(=O)(=O)c2cccc(-c3cc4cn(-c5ccc(CNCCCN=C(N)N)cc5)c(=O)nc4[nH]3)c2)cc1 [Compound 1226] | + (a “+” indicates that the compound has an MIC value of 16 micrograms/ml or less) | –
46 | NC(N)=NCCCNCc1ccc(-n2cc3cc(-c4cccc(S(=O)(=O)N(CCn5cccc5)C5CCNCC5)c4)[nH]c3nc2=O)cc1 [Compound 1227] | + (a “+” indicates that the compound has an MIC value of 16 micrograms/ml or less) | –
47 | N=C(N)NC[C@H](N)C(=O)NCc1ccc(-n2cc3cc(-c4ccc(S(=O)(=O)NC5CCNCC5)cc4)[nH]c3nc2=O)cc1 [Compound 1228] | + (a “+” indicates that the compound has an MIC value of 16 micrograms/ml or less) | –
48 | N=C(N)NCCCNCc1ccc(-n2cc3cc(C4CCNC4)[nH]c3nc2=O)cc1 (stereo not drawn) [Compound 1229] | – | < 16
49 | N=C(N)NCCCNCc1ccc(-n2cc3cc(C4CCN(C(=N)N)C4)[nH]c3nc2=O)cc1 (stereo not drawn) [Compound 1230] | – | < 16
50 | N=C(N)NCCCNCc1ccc(-n2cc3cc(C[C@@H](CO)NC(=O)c4ccccc4)[nH]c3nc2=O)cc1 [Compound 1231] | – | > 16
51 | NCc1ccc(-n2cc3cc(-c4cccc(CN5CCNCC5)c4)[nH]c3nc2=O)cc1 [Compound 1232] | – | > 16
